From BindingDB's records for doi:10.3109/14756366.2011.639016 (Gazi University, 2013) come the findings set out here.

SMILES strings stand for the structures.

One assay addresses Carbonic anhydrase 1 (Homo sapiens, UniProt P00915). Briefly: Esterase Activity Assay. As to conditions: pH 7.4. Here is the method:
(§1) The enzymatic reaction contained 1.4 mL 0.05 M Tris-SO4 buffer(pH 7.4), 1 mL 3 mM 4-nitrophenylacetate, 0.5 mL H2O and 0.1 mL enzyme solution (total volume, 3.0 mL). A reference measurement was obtained by preparing themixture without the enzyme solution. All measurements were made in triplicate.

The next assay addresses Carbonic anhydrase 2 (Homo sapiens, UniProt P00918). Briefly: Esterase Activity Assay. As to conditions: pH 7.4. Here is the method:
as §1

Sequence of Carbonic anhydrase 1 (P00915 whole entry): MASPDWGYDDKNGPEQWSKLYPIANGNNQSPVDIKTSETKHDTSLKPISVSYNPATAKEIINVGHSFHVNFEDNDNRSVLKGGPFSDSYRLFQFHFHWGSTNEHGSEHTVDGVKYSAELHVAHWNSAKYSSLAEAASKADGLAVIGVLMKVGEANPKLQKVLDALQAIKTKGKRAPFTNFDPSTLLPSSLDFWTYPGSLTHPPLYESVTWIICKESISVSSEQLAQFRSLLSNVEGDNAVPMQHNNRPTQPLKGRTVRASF

For orientation: IC50 means the concentration that inhibits the measured activity by half. Usually Ki stands for the equilibrium dissociation constant of an inhibitor or competing ligand from its target. Read a high Ki as lower affinity. On to `Cc1ccc(-c2c(C#N)c(N)nc3c2CCCCC3)o1` [CA inhibitor, 5f], for which, on Carbonic anhydrase 1, the half-inhibitory concentration (IC50) amounted to 53 µM and affinity was put at a Ki of 58.5 µM.
At Carbonic anhydrase 1, `Cc1ccc(-c2c(C#N)c(N)nc3c2CCCC3)o1` [CA inhibitor, 5e] gave a half-maximal inhibitory concentration (IC50) of 48 µM and a Ki of 89 µM.
For `Cc1ccc(-c2c(C#N)c(N)nc3c2CCCCC3)s1` [CA inhibitor, 5c], on Carbonic anhydrase 1, the IC50 came to 40 µM and the affinity, expressed as Ki, was 30.6 µM. Moreover, on Carbonic anhydrase 2, the IC50 was 77 µM and the Ki was found to be 73 µM.
For `Cc1ccc(-c2c(C#N)c(N)nc3c2CCCC3)s1` [2-azanyl-4-(5-methylthiophen-2-yl)-5,6,7,8-tetrahydroquinoline-3-carbonitrile], in that order: 34 µM, 31 µM, 99 µM and 182 µM.
Regarding `Cc1ccc(-c2c(C#N)c(N)nc3c2CCSC3)s1` [CA inhibitor, 5i], on Carbonic anhydrase 1, the IC50 amounted to 55 µM and the Ki turned out to be 38.4 µM.
On Carbonic anhydrase 1, `Cc1ccc(-c2c(C#N)c(N)nc3c2CCSC3)o1` [CA inhibitor, 5l] gave a half-inhibitory concentration (IC50) of 53 µM and a Ki of 50.3 µM.
Take `Cc1ccc(-c2c(C#N)c(N)nc3c2CCC3)o1` [CA inhibitor, 5d]: the IC50 worked out at 33 µM against Carbonic anhydrase 1 and 56 µM on Carbonic anhydrase 2. The Ki at Carbonic anhydrase 1 came out at 23.8 µM; at Carbonic anhydrase 2, 41 µM.
